pIC50: −log10 of the molar value.
Target: T1, beta amyloid peptide (1-40) (Homo sapiens, UniProt P05067)
T1 construct: beta amyloid peptide (1-40)
Experiment: in vitro amyloid aggregation assay (filtration of I125-labeled peptide aggregates)
Type: biochemical
Details: beta amyloid peptide (1-40) with I125 labeled peptide, sodium phosphate buffer pH 6.0, 2 hours at room temperature; read-out: IC50, concentration required to cause a 50% inhibition of amyloid aggregation
Protocol: The ability of the 9-acridinone compounds of the above formula to inhibit amyloid aggregation has been established in a standard in vitro assay. The assay is carried out by mixing beta amyloid peptide (1-40) with radioiodinated (I^125) labeled peptide to a concentration of 2.5 mg/mL in hexafluoroisopropanol. The mixture is diluted 1 to 5 with water (v/v). […] of the solution is mixed with 25 μL of 25 mM sodium phosphate buffer pH 6.0. The mixture is allowed to aggregate for 2 hours at room temperature with and without a test compound present. The mixtures are then diluted to 235 μL with phosphate buffer to stop the aggregation process. The solutions are passed through a 0.2-μm millipore filtermat. Aggregated protein remains in the filter well. The filter plate is washed with 50 μL of phosphate buffer and then soaked in solid gel scintillant and counted on a Microbeta counter to determine the amount of aggregation in the presence of a test compound versus control with no test compound.
Several representative 9-acridinone compounds have been evaluated in the above assay and shown to inhibit amyloid aggregation. The following table presents the activity of selected compounds, reported as the molar concentration of compounds required to cause a 50% inhibition (IC50) of amyloid aggregation in the above assay.

T1 sequence (P05067 672-711 limits assumed): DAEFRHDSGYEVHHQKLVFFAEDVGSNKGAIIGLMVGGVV

Question: With `CCN(CC)CCNc1ccc([N+](=O)[O-])c2[nH]c3ccc(O)cc3c(=O)c12` [Compound No. 9] as the molecule, how does the pIC50 read?
Answer: The pIC50 was 4.69.

Question: With `CSc1ccc2[nH]c3c([N+](=O)[O-])ccc(NCCCN(C)C)c3c(=O)c2c1` [compound 1] as the molecule, how does the pIC50 read?
Answer: Its pIC50 is 5.15.

Question: `CCN(CC)CCNc1ccc([N+](=O)[O-])c2[nH]c3ccc(SC)cc3c(=O)c12` [compound 2] was tested. Which pIC50 did it give?
Answer: The pIC50 was 5.05.

Question: How did the pIC50 turn out when `CCN(CC)CCNc1ccc([N+](=O)[O-])c2[nH]c3cc(OC)c(OC)cc3c(=O)c12` [compound 3] was run?
Answer: The pIC50 was 4.96.

Question: `CCCCOc1ccc2[nH]c3c([N+](=O)[O-])ccc(NCCN(C)C)c3c(=O)c2c1` [compound 4] was tested. Which pIC50 did it give?
Answer: The pIC50 was 4.60.

Question: `CCN(CC)CCCNc1ccc([N+](=O)[O-])c2[nH]c3ccc(OC)cc3c(=O)c12` [compound 5] was tested. Which pIC50 did it give?
Answer: Its pIC50 is 4.68.

Question: With `CCN(CC)CCNc1ccc([N+](=O)[O-])c2[nH]c3cc(Cl)c(OC)cc3c(=O)c12` [compound 6] as the molecule, how does the pIC50 read?
Answer: Its pIC50 is 4.73.

Question: `CCN(CC)CCNc1ccc([N+](=O)[O-])c2[nH]c3ccc(OCCN(CC)CC)cc3c(=O)c12` [compound 7] was tested. Which pIC50 did it give?
Answer: The pIC50 was 4.45.

Question: How did the pIC50 turn out when `CCOc1ccc2[nH]c3c([N+](=O)[O-])ccc(NCCN(CCO)CCO)c3c(=O)c2c1` [compound 8] was run?
Answer: Its pIC50 is 4.70.

Question: How did the pIC50 turn out when `CCN(CC)CCNc1ccc([N+](=O)[O-])c2[nH]c3ccc(OC)cc3c(=O)c12` [compound 10] was run?
Answer: The pIC50 was 4.86.

Question: With `CCN(CC)CCNc1ccc([N+](=O)[O-])c2[nH]c3ccccc3c(=O)c12` [compound 11] as the molecule, how does the pIC50 read?
Answer: Its pIC50 is 4.53.

Question: With `CCN(CC)CCNc1ccc([N+](=O)[O-])c2c1c(=O)c1cc(OC)ccc1n2C` [compound 12] as the molecule, how does the pIC50 read?
Answer: Its pIC50 is 4.63.

Question: `CCOc1ccc2[nH]c3c([N+](=O)[O-])ccc(NC(C)CN(C)C)c3c(=O)c2c1` (stereo not shown) [compound 13] was tested. Which pIC50 did it give?
Answer: Its pIC50 is 4.61.

From patent US5972956A, “Inhibition of amyloidosis by 9-acridinones” (Warner-Lambert Company, priority 1998, dated 1999)
